The NIST ThermoML archive (doi:10.1016/j.fluid.2014.09.014)

Assay: refractive index (other wavelength) (dimensionless); xn = mol fraction of the nth substance listed
Conditions: 313.15 K, 101 kPa, Liquid, Standard Abbe refractometry

CC(C)OC(C)C [diisopropyl ether] + CO
refractive index
Conditions | Wavelength=587.6 nm | Wavelength=589.3 nm | Wavelength=632.8 nm | Wavelength=644 nm
x2 = 0 | – | 1.35694 | 1.35572 | 1.35543
x2 = 0.0423 | – | 1.35688 | 1.35563 | 1.35534
x2 = 0.0424 | – | 1.3569 | 1.35568 | 1.3554
x2 = 0.082 | – | 1.35685 | 1.35562 | 1.35532
x2 = 0.0822 | – | 1.35704 | 1.35581 | 1.35552
x2 = 0.1171 | – | 1.3569 | 1.35567 | 1.35538
x2 = 0.1271 | – | 1.35691 | 1.35566 | 1.35538
x2 = 0.1827 | – | 1.35671 | 1.35548 | 1.35518
x2 = 0.2162 | – | 1.35656 | 1.35535 | 1.35505
x2 = 0.251 | – | 1.35622 | 1.35489 | 1.3546
x2 = 0.3298 | – | 1.35621 | 1.35494 | 1.35463
x2 = 0.3577 | – | 1.3559 | 1.35417 | 1.35388
x2 = 0.4497 | – | 1.35414 | 1.35292 | 1.35264
x2 = 0.4525 | – | 1.35454 | 1.35331 | 1.35302
x2 = 0.522 | – | 1.35241 | 1.3512 | 1.35091
x2 = 0.5543 | 1.3516 | 1.35155 | 1.35036 | 1.35008
x2 = 0.609 | 1.34934 | 1.34929 | 1.3481 | 1.34783
x2 = 0.6529 | 1.34786 | 1.34781 | 1.34667 | 1.34638
x2 = 0.7504 | 1.34401 | 1.34396 | 1.34279 | 1.34252
x2 = 0.804 | 1.33965 | 1.3396 | 1.33846 | 1.33821
x2 = 0.807 | 1.33975 | 1.3409 | 1.33854 | 1.33829
x2 = 0.8727 | 1.33626 | 1.33609 | 1.33509 | 1.33482
x2 = 0.9233 | 1.3284 | 1.32835 | 1.32726 | 1.32702
x2 = 0.9253 | 1.33006 | 1.33001 | 1.32891 | 1.32867
x2 = 0.9527 | 1.32712 | 1.32708 | 1.32598 | –
x2 = 0.9773 | 1.32383 | 1.32378 | 1.32372 | –
x2 = 0.989 | 1.32263 | 1.32259 | 1.32154 | –
x2 = 0.9964 | 1.32167 | 1.32163 | 1.32058 | –
